{
  "source": "patent US20260258077A1",
  "about": "“PROTEIN FOLDING AGENT, COMPOUND, PROTEIN FOLDING METHOD, PHARMACEUTICAL COMPOSITION, AND AGENT FOR SUPPRESSING CYTOTOXICITY BY TRANSITION METAL” (National University Corporation Tokyo University of …, priority 2023, published 2026)",
  "key": {"[1]": {"target": "T1, reduced and denatured Bovine Pancreatic Trypsin Inhibitor (BPTI) (Bos taurus, UniProt P00974)", "T1 construct": "purchased Pro-Spec-Tany TechnoGene Ltd. (Rehovot, Israel)", "assay": "Protein folding test of reduced and denatured BPTI (reverse-phase HPLC)", "type": "biochemical", "settings": "for formation proportion of native structural BPTI in the presence of Zn(II) ions: 90 μM Zn(II) (ZnSO4), 90 μM (B-1-2-1) or 900 μM GSSG alone, 1 hour (FIG. 25)", "protocol": "Bovine Pancreatic Trypsin Inhibitor (BPTI) having three disulfide bonds in the molecule was used as a model protein for analyzing a folding process.\nBPTI (10 mg) was dissolved in 0.1 M Tris-HCl (pH: 8.0, 1.0 mL) containing 30 mM 1,4-dithiothreitol and 8 M urea, incubated at 50° C. for 3 hours, and purified by reverse-phase HPLC. HPLC purification was carried out using a PU-4180 pump and a UV-4075 detector manufactured by JASCO Corporation (Tokyo, Japan), and an InertSustain C18 column (4.6 mm×250 mm) manufactured by GL Sciences Inc. (Tokyo, Japan) at a flow rate of 1.0 mL·min^−1. The collected fractions were freeze-dried, and the obtained powder was stored at −30° C.\nFor analysis of the folding process by reverse-phase HPLC, Primaide HPLC system manufactured by Hitachi High-Tech Corporation (Tokyo, Japan) and TSKgel Protein C4-300 column (§ 4.6×150 mm) manufactured by Tosoh Corporation (Tokyo, Japan) were used. […]\nIn the presence of 200 μM of the compound (B-1-1-1) and 1.0 mM of the compound (A-1-1-1), reduced and denatured BPTI (30 μM) was dissolved in a Tris-HCl buffer (50 mM Tris-HCl, 300 mM NaCl, pH: 7.5) and incubated at 30° C. Reaction solutions (200 μL) collected at 0 minutes, 1 minute, 5 minutes, 10 minutes, 30 minutes, and 60 minutes after the start of the reaction were mixed with an equivalent amount of 1 M hydrochloric acid, and analyzed by reverse-phase HPLC. Tracing was performed at a flow rate of 1.0 mL·min^−1 and a wavelength of 229 nm, and a linear gradient was applied to the elution solvent ratio during measurement (solvent A: water containing 0.05% TFA, solvent B: acetonitrile containing 0.05% TFA; the amount of solvent A: 95% at 0 minutes, 80% at 15 minutes, 65% at 45 minutes). […]\nIn the presence of 200 μM oxidized glutathione (GSSG) and 1.0 mM reduced glutathione (GSH), or in the presence of 200 μM of the compound (B-1-1-1) and 1.0 mM of the compound (A-1-1-1), ZnSO4 and reduced and denatured BPTI (30 μM) were dissolved in a Tris-HCl buffer (50 mM Tris-HCl, 300 mM NaCl, pH: 7.5) and incubated at 30° C. The reaction solution (200 μL) 1 hour after the start of the reaction was mixed with an equivalent amount of 1 M hydrochloric acid and analyzed by reverse-phase HPLC. Tracing was performed at a flow rate of 1.0 mL·min^−1 and a wavelength of 229 nm, and a linear gradient was applied to the elution solvent ratio during measurement (solvent A: water containing 0.05% TFA, solvent B: acetonitrile containing 0.05% TFA; the amount of solvent A: 95% at 0 minutes, 80% at 15 minutes, 65% at 45 minutes).\nIn the presence of 90 μM of the compound (B-1-2-1) and 900 μM of the compound (A-1-2-1), or in the presence of 90 μM of oxidized glutathione […] and 900 μM of reduced glutathione […], reduced and denatured BPTI (30 μM) was dissolved in a Tris-HCl buffer (50 mM Tris-HCl, 300 mM NaCl, pH: 7.5) and incubated at 30° C. The reaction solution (200 μL) 1 hour after the start of the reaction was mixed with an equivalent amount of 1 M hydrochloric acid and analyzed by reverse-phase HPLC. Tracing was performed at a flow rate of 1.0 mL·min^−1 and a wavelength of 229 nm, and a linear gradient was applied to the elution solvent ratio during measurement (solvent A: water containing 0.05% TFA, solvent B: acetonitrile containing 0.05% TFA; the amount of solvent A: 95% at 0 minutes, 80% at 15 minutes, 65% at 45 minutes).\nIn the presence of 90 μM of the compound (B-1-2-1), 90 μM of Zn(II) ion (ZnSO4) and reduced and denatured BPTI (30 μM) were dissolved in a Tris-HCl buffer (50 mM Tris-HCl, 300 mM NaCl, pH: 7.5) and incubated at 30° C. The reaction solution (200 μL) 1 hour after the start of the reaction was mixed with an equivalent amount of 1 M hydrochloric acid and analyzed by reverse-phase HPLC. […]"}, "[2]": {"test_system": "HeLa cells", "assay": "Suppressive effect on cytotoxicity of Cu(II) ions (Cell Counting Kit-8)", "type": "cell-based", "settings": "100 μM Cu(II); single oxidized agent added four hours later; read 24 hours after CuCl2 (FIG. 15)", "protocol": "HeLa cells were seeded in a 96-well plate at 5,000 cells/well and cultured at 37° C. in a 5% CO2 environment for 24 hours. Subsequently, a CuCl2 aqueous solution was added thereto to obtain 100 μM Cu(II). Four hours later, a mixed solution (10:1) of a certain amount of the compound (A-1-1-1) and the compound (B-1-1-1), or a mixed solution (10:1) of oxidized glutathione (GSSG) and reduced glutathione (GSH) was added. 24 hours after the addition of CuCl2, a Cell Counting Kit-8 solution was added thereto. Two hours later, an absorbance at 450 nm was measured to estimate the cell viability.\nHeLa cells were seeded in a 96-well plate at 5,000 cells/well and cultured at 37° C. in a 5% CO2 environment for 24 hours. Subsequently, a CuCl2 aqueous solution was added thereto to obtain 100 μM Cu(II). Four hours later, a certain amount of the compound (B-1-1-1) solution or oxidized glutathione (GSSG) solution was added thereto. 24 hours after the addition of CuCl2, a Cell Counting Kit-8 solution was added thereto. Two hours later, the absorbance at 450 nm was measured to estimate the cell viability."}},
  "data": [
    {"molecule": "C1CN2CCSSCCN(CCN1)CC2", "note": "[compound (B-2-1-1)]", "values": [
      {"measurement": "protein folding promotion effect of a catalytic amount", "setting": "[1]; 6 μM (B-2-1-1), NiCl2 0 μM, BPTI 30 μM (FIG. 31)", "result": "had the protein folding promotion effect"},
      {"measurement": "protein folding promotion effect of a catalytic amount in the presence of Ni(II) ions", "setting": "[1]; 6 μM (B-2-1-1), NiCl2 1 μM, BPTI 30 μM (FIG. 32)", "result": "significantly improved as compared with the absence of Ni(II) ions"},
      {"measurement": "protein folding promotion effect of a catalytic amount in the presence of Cu(II) ions", "setting": "[1]; 30 μM (B-2-1-1), CuCl2 5 μM, BPTI 30 μM (FIG. 33)", "result": "significantly improved as compared with the absence of Cu(II) ions"},
      {"measurement": "formation proportion of native structural BPTI with increasing Cu(II) ion concentration", "setting": "[1]; 90 μM (B-2-1-1), CuCl2, 1 hour (FIG. 29)", "result": "formation proportion of native structural BPTI increased as the Cu(II) ion concentration increased"},
      {"measurement": "formation proportion of native structural BPTI with increasing Ni(II) ion concentration", "setting": "[1]; 90 μM (B-2-1-1), NiCl2, 1 hour (FIG. 30)", "result": "formation proportion of native structural BPTI increased as the Ni(II) ion concentration increased"},
      {"measurement": "folding versus theoretical yield of a stoichiometric reaction", "setting": "[1]; catalytic amount of (B-2-1-1), presence of Ni(II) ions or Cu(II) ions", "result": "enhancement of folding that greatly exceeded the theoretical yield expected for a stoichiometric reaction"},
      {"measurement": "protein folding promotion effect", "setting": "[1]; no metal ion, 90 μM agent, 1 hour, 30° C. (FIG. 28)", "result": "protein folding promotion effect comparable to that of GSSG"}
    ]},
    {"molecule": "oxidized glutathione [GSSG, reference compound]", "values": [
      {"measurement": "formation proportion of native structural BPTI in the presence of Zn(II) ions", "setting": "[1]", "result": "proteins aggregated and folding hardly proceeded"},
      {"measurement": "improvement of cell viability of HeLa cells exposed to Cu(II) ions", "setting": "[2]", "result": "had little effect on improving the cell viability of HeLa cells"}
    ]},
    {"molecule": "C1CNCCNCCCN(CCSSCCN2CCCNCCNCCCNCC2)CCNC1", "note": "[compound (B-1-1-1)]", "values": [
      {"measurement": "improvement of cell viability of HeLa cells exposed to Cu(II) ions", "setting": "[2]", "result": "greatly improved the viability of HeLa cells"}
    ]},
    {"molecule": "C1CNCCN(CCSSCCN2CCNCCNCC2)CCN1", "note": "[compound (B-1-2-1)]", "values": [
      {"measurement": "formation of native structural BPTI in the absence of Zn(II) ions", "setting": "[1]; 90 μM (B-1-2-1) alone, Zn(II) 0 μM, 1 hour (FIG. 23)", "result": "native structural BPTI was formed even at a Zn(II) ion concentration of 0 μM"},
      {"measurement": "formation proportion of native structural BPTI with increasing Zn(II) ion concentration", "setting": "[1]; 90 μM (B-1-2-1) alone, ZnSO4, 1 hour, 30° C. (FIG. 23)", "result": "formation proportion of native structural BPTI increased as the Zn(II) ion concentration increased"},
      {"measurement": "formation proportion of native structural BPTI in the presence of Zn(II) ions", "setting": "[1]", "result": "formation proportion of native structural BPTI was larger in the presence of Zn(II) ions than in the absence of Zn(II) ions"}
    ]}
  ]
}
